One data set has as its system Enzyme A′. The experiment in a line: Effect of metals and inhibitors on enzyme activity, PMS-DCIP assay. It is filed as biochemical, G. oxydans DSM No. 4025.
The next data set relates to Enzyme A. The data set is described as above. It is filed as biochemical, G. oxydans DSM No. 4025.
The test system of the next data set is Enzyme B. The description is as above. Format: biochemical, G. oxydans DSM No. 4025.
In another data set the test system is Enzyme A″. The data set is described as above. Format: biochemical, G. oxydans DSM No. 4025.
Data set [1] concerns Gluconobacter oxydans DSM No. 4025 AADH chimera Enzyme sA2 (Enzyme A residues 1-135, Enzyme B residues 136-180, Enzyme A residues 180-556; parents SEQ ID NO: …). Nature of the data set: Kinetic properties of chimera Enzyme sA2. It is filed as biochemical. The following applies: read-out: Km (glucose). From the text: To further improve the chimeras, Enzyme A/B21, Enzyme A/B22, Enzyme A/B25 and Enzyme A/B31 in the view point of the preferable codon usage, the C-terminal two thirds consisting of Enzyme B residues were replaced with the C-terminal two thirds consisting of Enzyme A residues. Enzyme A/B21, Enzyme A/B22, Enzyme A/B25 and Enzyme A/B31 genes were used for constructing new chimera genes of Enzyme sA21 (Enzyme A ammo acid residue Nos. 1-128, Enzyme B amino acid residue Nos. 129-180 and Enzyme A amino acid residue Nos. 180-556), Enzyme sA22 (Enzyme A amino acid residue Nos. 1-125, Enzyme B amino acid residue Nos. 126-180 and Enzyme A amino acid residue Nos. 180-556), Enzyme sA2 (Enzyme A amino acid residue Nos. 1-135, Enzyme B amino acid residue Nos. 136-180 and Enzyme A amino acid residue Nos. 180-556) and Enzyme sB (Enzyme A amino acid residue Nos. 1-95, Enzyme B amino acid residue Nos. 96-180 and Enzyme A amino acid residue Nos. 180-556) (FIG. 4). […]

In data set [2] the target is T1, Gluconobacter oxydans DSM No. 4025 alcohol/aldehyde dehydrogenase Enzyme A′, SEQ ID NO: 6 (Ketogulonicigenium vulgare, UniProt F9Y5Q6).
T1 construct: 579 aa precursor with 23 aa signal peptide; PMS-DCIP assay with n-propanol
T1 sequence (F9Y5Q6 with tags, fused parts or gaps): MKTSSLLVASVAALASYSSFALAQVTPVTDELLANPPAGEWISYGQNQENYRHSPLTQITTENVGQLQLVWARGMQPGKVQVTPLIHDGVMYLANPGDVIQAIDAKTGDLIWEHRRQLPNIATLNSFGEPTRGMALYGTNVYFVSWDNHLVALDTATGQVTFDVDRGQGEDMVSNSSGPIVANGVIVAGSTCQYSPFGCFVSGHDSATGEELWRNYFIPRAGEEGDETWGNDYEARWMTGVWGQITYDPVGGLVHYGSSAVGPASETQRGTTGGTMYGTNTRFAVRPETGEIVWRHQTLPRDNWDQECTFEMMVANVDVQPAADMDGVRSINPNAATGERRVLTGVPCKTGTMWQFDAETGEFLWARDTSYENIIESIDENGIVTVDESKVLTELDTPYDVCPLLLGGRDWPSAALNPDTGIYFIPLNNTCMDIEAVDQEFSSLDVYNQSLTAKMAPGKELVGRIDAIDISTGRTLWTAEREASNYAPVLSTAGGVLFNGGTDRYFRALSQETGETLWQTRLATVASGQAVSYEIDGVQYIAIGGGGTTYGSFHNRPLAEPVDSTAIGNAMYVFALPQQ
Nature of the data set: Effect of inhibitors on activity of Enzyme A′ (PMS-DCIP assay, substrate n-propanol). It is filed as biochemical. The settings on record: 10 mM inhibitor, 30 minutes at 25° C., pH 7.5, relative to blank incubation. The method, then: (§1) The enzymatic activity of the AADHs herein can be determined by methods known in the art, such as by photometric analysis using a spectrophotometer. In accordance with the present invention, one unit of enzyme activity was defined as the amount of enzyme which catalyzed the reduction of 1 μmole of DCIP per minute. The extinction coefficient of DCIP at pH 8.0 was taken as 15 mM^−1. […] A second cuvette, i.e., a reference cuvette, contains all the above components except the substrate. The reference cuvette is used to standardize the background absorbance resulting from a substrate-independent (endogenous) reaction.
(§2) Enzyme activities of each clone (cell free extract, soluble fraction and membrane fraction) were measured by photometric analysis. The cells of each clone were inoculated in 5 ml of MB medium in a test tube and cultivated at 30° C. for 24 hours. The resulting broth was transferred into 200 ml of fresh MB medium in 500 ml flask and the flask was shaken on the rotary flask shaker at 30° C. for 24 hours. […] Substrate-dependent decreasing rate of absorbance of DCIP at 600 nm was measured at 25° C. by using a Kontron spectrophotometer UVIKON 810.
(§3) The enzyme (about 0.05 mg/ml) in 25 mM HEPES buffer, pH 7.5, containing 5% sucrose was incubated with metal or inhibitor for 30 minutes at 25° C. […] Remaining activity is expressed as relative activity against blank incubation.

Data set [3] has as its target T2, Gluconobacter oxydans DSM No. 4025 alcohol/aldehyde dehydrogenase Enzyme B, SEQ ID NO: 8 (Ketogulonicigenium vulgare, UniProt F9Y8N6).
T2 construct: 579 aa precursor with 23 aa signal peptide; PMS-DCIP assay with D-sorbitol
T2 sequence (F9Y8N6 24-579): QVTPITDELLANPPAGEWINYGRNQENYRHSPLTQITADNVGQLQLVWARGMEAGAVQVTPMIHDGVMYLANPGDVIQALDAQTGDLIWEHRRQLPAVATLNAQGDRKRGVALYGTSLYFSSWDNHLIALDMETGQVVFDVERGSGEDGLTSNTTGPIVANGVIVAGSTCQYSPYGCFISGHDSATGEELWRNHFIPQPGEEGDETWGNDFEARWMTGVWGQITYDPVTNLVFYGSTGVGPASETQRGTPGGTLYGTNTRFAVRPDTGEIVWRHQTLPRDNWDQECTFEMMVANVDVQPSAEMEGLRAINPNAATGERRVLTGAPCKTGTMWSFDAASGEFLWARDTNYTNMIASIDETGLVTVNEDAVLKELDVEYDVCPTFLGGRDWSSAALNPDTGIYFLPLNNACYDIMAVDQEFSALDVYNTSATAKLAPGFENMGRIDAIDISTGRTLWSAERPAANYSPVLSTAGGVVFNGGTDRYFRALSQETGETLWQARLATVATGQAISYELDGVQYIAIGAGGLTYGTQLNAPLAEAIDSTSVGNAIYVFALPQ
Nature of the data set: Effect of inhibitors on activity of Enzyme B (PMS-DCIP assay, substrate D-sorbitol). It is filed as biochemical. The settings on record: 10 mM inhibitor, 30 minutes at 25° C., pH 7.5, relative to blank incubation. The method, then: as §1, §2, §3

Substrate in data set [4]: OCC1(O)OC[C@H](O)[C@@H](O)[C@@H]1O
The experiment in a line: purified protein, by the assay type. The settings on record: other: Enzyme A.

The mark [5] stands for this setting: 5 mM compound, 30 minutes at 25° C., substrate n-Propanol, relative to blank incubation.
Where [6] appears, read: 5 mM compound, 30 minutes at 25° C., substrate L-Sorbose, relative to blank incubation.
[7] abbreviates: 5 mM compound, 30 minutes at 25° C., substrate D-Sorbitol, relative to blank incubation.
Setting [8] is: 1 mM compound, 30 minutes at 25° C., substrate n-Propanol, relative to blank incubation.
The mark [9] stands for this setting: 1 mM compound, 30 minutes at 25° C., substrate L-Sorbose, relative to blank incubation.
Setting [10] is: 1 mM compound, 30 minutes at 25° C., substrate D-Sorbitol, relative to blank incubation.
Setting [11] is: 0.5 mM compound, 30 minutes at 25° C., substrate L-Sorbose, relative to blank incubation.

Read-outs that look alike come from different tables or passages of the source.

Take `[Cl][Mn][Cl]` [MmCl2]: the Relative remaining activity in the data set on Enzyme A′ (setting [5]) is given as 45.7; with Enzyme A (setting [6]), 0.0; in the data set on Enzyme B (setting [7]), 0.0; with Enzyme A″ (setting [6]), 0.0.
As for `[Cl-].[Cl-].[Co+2]` [CoCl2], the Relative remaining activity is on record as 7.9 with Enzyme A′, 16.6 in the data set with Enzyme A, 23.6 with Enzyme B and 46.9 in the data set with Enzyme A″.
For the molecule `[F-].[Na+]` [NaF], the Relative remaining activity turned out to be 97.1 with Enzyme A′ (setting [8]), 98.2 with Enzyme A (setting [9]), 100.8 with Enzyme B (setting [10]) and 94.9 with Enzyme A″ (setting [9]).
Take `[Cl][Cu][Cl]` [CuCL2]: the Relative remaining activity in the data set with Enzyme A′ (setting [5]), in the data set on Enzyme A (setting [6]), with Enzyme B (setting [7]) and with Enzyme A″ (setting [6]) was 0.0 each time.
As to `OC[C@H]1OC(O)[C@H](O)[C@@H](O)[C@@H]1O` (stereo partly shown) [glucose], the Km in data set [1] came to 20 mM.
As to `[Ca+2].[Cl-].[Cl-]` [CaCl2], the Relative remaining activity with Enzyme A′ (setting [5]) is listed as 95.3; with Enzyme A (setting [6]), 98.8; with Enzyme B (setting [7]) it was 102.9; in the data set with Enzyme A″ (setting [6]), 123.0.
In the same order, the values of `O=S(=O)([O-])[O-].[Ni+2]` [NiSO4] are 59.7, 42.7, 79.4 and 90.3.
Broadly, the remaining activity is the signal under treatment as a percentage of the control signal. For `O=C(O)CN(CCOCCOCCN(CC(=O)O)CC(=O)O)CC(=O)O` [EGTA], the remaining activity at 10000 µM turned out to be 16.7% in data set [2] and 74% in data set [3].
With `[Cl][Fe][Cl]` [FeCl2], the Relative remaining activity is 0.0 with Enzyme A′ (setting [5]), 16.6 in the data set with Enzyme A (setting [6]), 5.9 in the data set with Enzyme B (setting [7]) and 0.0 with Enzyme A″ (setting [6]).
Take `[Cl-].[Cl-].[Mg+2]` [MgCl2]: the Relative remaining activity is 85.3 in the data set on Enzyme A′ (setting [5]), 96.3 in the data set on Enzyme A (setting [6]), 100.0 in the data set on Enzyme B (setting [7]) and 78.8 in the data set with Enzyme A″ (setting [6]).
With `O=C(O)CI` [ICH2COONa], the Relative remaining activity in the data set with Enzyme A′ (setting [8]) was 78.3; with Enzyme A (setting [9]), 97.2; in the data set on Enzyme B (setting [10]), 100.2; in the data set with Enzyme A″ (setting [9]) it was 95.3.
As to `Cl.NO` [Hydroxylamine-HCl], the Relative remaining activity in the data set with Enzyme A′ (0.5 mM compound, 30 minutes at 25° C., substrate n-Propanol, relative to blank incubation) was found to be 98.8; in the data set on Enzyme A (setting [11]) it was 104.6; in the data set on Enzyme B (0.5 mM compound, 30 minutes at 25° C., substrate D-Sorbitol, relative to blank incubation), 102.1; with Enzyme A″ (setting [11]), 97.2.
In the case of `[Cl-].[Cl-].[Zn+2]` [ZnCl2], the Relative remaining activity in the data set on Enzyme A′ (setting [5]) is 6.1; in the data set on Enzyme A (setting [6]), 1.5; in the data set with Enzyme B (setting [7]), 0.0; in the data set on Enzyme A″ (setting [6]), 19.2.
In the same order, the values of `[Cl][Fe]([Cl])[Cl]` [FeCl3] are 0.0, 7.8, 0.0 and 44.7.

B1: Gluconobacter oxydans DSM No. 4025 alcohol/aldehyde dehydrogenase Enzyme A, wild type, SEQ ID NO: 5 (Ketogulonicigenium vulgare WSH-001) (protein)
chain: QVTPVTDELLANPPAGEWISYGQNQENYRHSPLTQITTENVGQLQLVWARGMQPGKVQVTPLIHDGVMYLANPGDVIQAIDAKTGDLIWEHRRQLPNIATLNSFGEPTRGMALYGTNVYFVSWDNHLVALDTATGQVTFDVDRGQGEDMVSNSSGPIVANGVIVAGSTCQYSPFGCFVSGHDSATGEELWRNYFIPRAGEEGDETWGNDYEARWMTGAWGQITYDPVTNLVHYGSTAVGPASETQRGTPGGTLYGTNTRFAVRPDTGEIVWRHQTLPRDNWDQECTFEMMVTNVDVQPSTEMEGLQSINPNAATGERRVLTGVPCKTGTMWQFDAETGEFLWARDTNYQNMIESIDENGIVTVNEDAILKELDVEYDVCPTFLGGRDWPSAALNPDSGIYFIPLNNVCYDMMAVDQEFTSMDVYNTSNVTKLPPGKDMIGRIDAIDISTGRTLWSVERAAANYSPVLSTGGGVLFNGGTDRYFRALSQETGETLWQTRLATVASGQAISYEVDGMQYVAIAGGGVSYGSGLNSALAGERVDSTAIGNAVYVFALPQ
As to B1, in data set [4], the Km worked out at 36 mM mM.

Values taken from US6730503B1 (Roche Vitamins Inc., priority 1996, dated 2004).
